Target: T1, recombinant maize (Zea mays) CK2 a-subunit (Biaffin) (Zea mays, UniProt P28523)
T1 construct: gene ACK2; commercial recombinant catalytic alpha subunit (Biaffin)
Assay: in vitro kinase assay, SDS-PAGE and phosphorimager
Assay type: biochemical
Settings: protein substrate recombinant AtSOUL4 (3 µg); 25 mM Tris-HCl pH 8.0, 5 mM MgCl2, 1 mM DTT, 25 °C, 30 min; labelled compound; mere turnover

T1 sequence (P28523 whole entry): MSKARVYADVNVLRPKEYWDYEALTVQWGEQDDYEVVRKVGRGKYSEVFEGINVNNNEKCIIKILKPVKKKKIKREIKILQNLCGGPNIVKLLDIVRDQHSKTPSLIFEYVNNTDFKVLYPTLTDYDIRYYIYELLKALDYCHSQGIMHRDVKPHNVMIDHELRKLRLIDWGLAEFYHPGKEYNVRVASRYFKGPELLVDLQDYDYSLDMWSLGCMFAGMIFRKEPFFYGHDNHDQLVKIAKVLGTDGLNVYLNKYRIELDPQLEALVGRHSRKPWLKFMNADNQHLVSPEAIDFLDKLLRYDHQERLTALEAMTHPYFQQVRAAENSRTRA

Nc1ncnc2c1ncn2[C@@H]1O[C@H](COP(=O)(O)OP(=O)(O)OP(=O)(O)O)[C@@H](O)[C@H]1O [ATP]
in vitro kinase assay, SDS-PAGE and phosphorimager: revealing phosphorylation of SOUL4 both by recombinant maize CKII and stromal fraction

Reference: paper PMC7006542, “Characterization of a Plastoglobule-Localized SOUL4 Heme-Binding Protein in Arabidopsis thaliana” (Frontiers in Plant Science, 2020)
